Structures can show the parent of a compound that is named as a salt.
Target: Proton Pump (H^+/K^+-ATPase) (Sus scrofa, UniProt P19156)
Experiment: Inhibitory effects on proton pump (H^+/K^+-ATPase) activity
Format: biochemical
Conditions: hog gastric vesicles; K^+ stimulated H^+/K^+-ATPase activity; 30 minutes at 37° C.

Chain of Proton Pump (H^+/K^+-ATPase) (P19156 2-1034 limits assumed): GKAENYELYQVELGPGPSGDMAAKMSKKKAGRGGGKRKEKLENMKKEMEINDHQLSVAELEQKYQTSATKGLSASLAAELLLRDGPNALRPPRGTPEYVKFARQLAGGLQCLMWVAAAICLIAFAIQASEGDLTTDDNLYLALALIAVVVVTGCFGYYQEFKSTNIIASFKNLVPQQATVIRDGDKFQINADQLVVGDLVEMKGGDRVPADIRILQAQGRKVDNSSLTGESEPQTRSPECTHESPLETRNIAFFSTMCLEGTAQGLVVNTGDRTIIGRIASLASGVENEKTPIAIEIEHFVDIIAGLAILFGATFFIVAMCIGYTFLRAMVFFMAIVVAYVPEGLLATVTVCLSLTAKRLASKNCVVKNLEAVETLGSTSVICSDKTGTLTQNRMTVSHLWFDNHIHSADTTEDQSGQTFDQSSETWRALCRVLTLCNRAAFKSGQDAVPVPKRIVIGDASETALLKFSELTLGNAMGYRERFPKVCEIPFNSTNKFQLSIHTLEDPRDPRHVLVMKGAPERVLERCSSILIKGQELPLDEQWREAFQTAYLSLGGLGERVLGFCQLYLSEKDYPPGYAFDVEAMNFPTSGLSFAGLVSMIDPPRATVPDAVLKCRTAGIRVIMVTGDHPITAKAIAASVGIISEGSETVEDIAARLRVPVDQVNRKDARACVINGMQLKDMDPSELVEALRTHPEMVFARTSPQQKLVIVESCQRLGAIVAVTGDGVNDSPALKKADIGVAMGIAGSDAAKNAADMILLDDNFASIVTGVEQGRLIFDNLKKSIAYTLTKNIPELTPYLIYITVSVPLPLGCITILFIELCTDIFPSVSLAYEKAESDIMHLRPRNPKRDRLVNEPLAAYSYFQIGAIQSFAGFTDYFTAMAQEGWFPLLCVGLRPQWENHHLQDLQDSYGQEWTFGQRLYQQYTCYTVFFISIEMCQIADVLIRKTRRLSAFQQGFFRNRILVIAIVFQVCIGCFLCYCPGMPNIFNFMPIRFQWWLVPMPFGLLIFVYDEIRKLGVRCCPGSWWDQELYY
Chain of Proton Pump (H^+/K^+-ATPase) (P18434 whole entry partner): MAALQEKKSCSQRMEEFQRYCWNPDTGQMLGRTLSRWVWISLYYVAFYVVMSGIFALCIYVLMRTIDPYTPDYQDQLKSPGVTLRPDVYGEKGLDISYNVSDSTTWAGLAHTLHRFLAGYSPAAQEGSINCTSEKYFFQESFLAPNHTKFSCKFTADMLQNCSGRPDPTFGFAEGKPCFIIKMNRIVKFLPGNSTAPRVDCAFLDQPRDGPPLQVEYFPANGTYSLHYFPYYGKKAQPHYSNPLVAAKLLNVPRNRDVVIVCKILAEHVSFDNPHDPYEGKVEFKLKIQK

Row | Compound | IC50
1 | COCCn1c(C)c(C)c2ccnc(N3CCc4cc(F)ccc4C3C)c21 (stereo not shown) [Example 564, 6-fluoro-2-[1-(2-methoxyethyl)-2,3-dimethyl-1H-pyrrolo[2,3-c]pyridin-7-yl]-1-methyl-1,2,3,4-tetrahydroisoquinoline hydrochloride] | 82 nM
2 | COc1cccc(Cn2c(C)c(C)c3cc(N)nc(N4CCc5ccccc5C4)c32)c1 [Example 848, 7-(3,4-dihydro-1H-isoquinolin-2-yl)-1-(3-methoxybenzyl)-2,3-dimethyl-1H-pyrrolo[2,3-c]pyridin-5-amine hydrochloride] | 29 nM
3 | Cc1c(C)n(CC(C)C)c2c(N3CCc4ccccc4C3)nc(C(=O)N3CCN(C)CC3)cc12 [Example 833, [7-(3,4-dihydro-1H-isoquinolin-2-yl)-1-isobutyl-2,3-dimethyl-1H-pyrrolo[2,3-c]pyridin-5-yl]-(4-methylpiperazin-1-yl)-methanone hydrochloride] | 43 nM
4 | Cc1c(C)n(CC2CC2)c2c(NCc3ccc(F)cc3)nccc12 [Example 226, 1-cyclopropylmethyl-7-(4-fluorobenzylamino)-2,3-dimethyl-1H-pyrrolo[2,3-c]pyridine hydrochloride] | 70 nM
5 | Cc1c(C)n(Cc2ccccc2)c2c(CN(C)c3ccc(F)cc3)nccc12 [Example 111, N-(1-benzyl-2,3-dimethyl-1H-pyrrolo[2,3-c]pyridin-7-ylmethyl)-N-(4-fluorophenyl)-methylamine hydrochloride] | 25 nM
6 | Cc1c(C)n(Cc2cccc(F)c2)c2c(N3CCc4ccccc4C3)nc(C(=O)n3ccnc3)cc12 [Example 840, [7-(3,4-dihydro-1H-isoquinolin-2-yl)-1-(3-fluorobenzyl)-2,3-dimethyl-1H-pyrrolo[2,3-c]pyridin-5-yl]-(imidazol-1-yl)-methanone hydrochloride] | 169 nM
7 | COCCn1c(C)c(C)c2ccnc(N(C)Cc3ccc(F)cc3)c21 [Example 143, 7-[N-(4-fluorobenzyl)-N-methyl]amino-1-(2-methoxyethyl)-2,3-dimethyl-1H-pyrrolo[2,3-c]pyridine hydrochloride] | 300 nM
8 | Cc1c(C)n(Cc2ccc(F)cc2)c2c(N3CCc4ccccc4C3)nc(C(=O)N3CCN(C)CC3)cc12 [Example 831, [7-(3,4-dihydro-1H-isoquinolin-2-yl)-1-(4-fluorobenzyl)-2,3-dimethyl-1H-pyrrolo[2,3-c]pyridin-5-yl]-(4-methylpiperazin-1-yl)-methanone hydrochloride] | 39 nM
9 | Cc1ccc(-c2nccc3c(C)c(C)n(Cc4ccc(Cl)c(Cl)c4)c23)cc1 [Example 296, 1-(3,4-dichlorobenzyl)-2,3-dimethyl-7-(p-tolyl)-1H-pyrrolo[2,3-c]pyridine hydrochloride] | 5080 nM
10 | Cc1c(C)n(CC2OCCO2)c2c(N(C)Cc3ccc(F)cc3)nccc12 [Example 158, 1-(1,3-dioxolan-2-ylmethyl)-7-[N-(4-fluorobenzyl)-N-methyl]amino-2,3-dimethyl-1H-pyrrolo[2,3-c]pyridine hydrochloride] | 270 nM
11 | COCn1c(C)c(C)c2cc(C(=O)N3CCCCC3)nc(N3CCc4ccccc4C3)c21 [Example 800, [7-(3,4-dihydro-1H-isoquinolin-2-yl)-1-methoxymethyl-2,3-dimethyl-1H-pyrrolo[2,3-c]pyridin-5-yl]-(piperidin-1-yl)-methanone hydrochloride] | 91 nM
12 | Cc1c(C)n(Cc2ccc(F)cc2)c2c(N(C)Cc3ccc(F)cc3)nccc12 [Example 155, 1-(4-fluorobenzyl)-7-[N-(4-fluorobenzyl)-N-methyl]amino-2,3-dimethyl-1H-pyrrolo[2,3-c]pyridine hydrochloride] | 400 nM
13 | CSc1ccc(-c2nccc3c(C)c(C)n(CC4CC4)c23)cc1 [Example 270, 1-cyclopropylmethyl-2,3-dimethyl-7-(4-methylsulfanylphenyl)-1H-pyrrolo[2,3-c]pyridine hydrochloride] | 450 nM
14 | Cc1c(C)n(Cc2cccc(F)c2)c2c(N3CCc4ccccc4C3)nc(C#N)cc12 [Example 695, 7-(3,4-dihydro-1H-isoquinolin-2-yl)-1-(3-fluorobenzyl)-2,3-dimethyl-1H-pyrrolo[2,3-c]pyridin-5-carbonitrile] | 481 nM
15 | C=Cc1ccc(-c2nccc3c(C)c(C)n(Cc4cccc(F)c4)c23)cc1 [Example 243, 1-(3-fluorobenzyl)-2,3-dimethyl-7-(4-vinylphenyl)-1H-pyrrolo[2,3-c]pyridine hydrochloride] | 90 nM
16 | CCc1c(C)c2ccnc(N3CCc4ccccc4C3)c2n1C [Example 609, 2-ethyl-1,3-dimethyl-7-(1,2,3,4-tetrahydroisoquinolin-2-yl)-1H-pyrrolo[2,3-c]pyridine hydrochloride] | 379 nM
17 | Cc1[nH]c2c(-c3ccc(Cl)cc3)nccc2c1C [Example 299, 7-(4-chlorophenyl)-2,3-dimethyl-1H-pyrrolo[2,3-c]pyridine hydrochloride] | 350 nM
18 | Cc1c(C)n(Cc2ccccc2)c2c(N3CCc4ccc(F)cc4C3C)nccc12 (stereo not shown) [Example 547, 2-(1-benzyl-2,3-dimethyl-1H-pyrrolo[2,3-c]pyridin-7-yl)-7-fluoro-1-methyl-1,2,3,4-tetrahydroisoquinoline hydrochloride] | 130 nM
19 | Cc1c(C)n(Cc2ccccc2)c2c(N3CCc4ccccc4C3)nc(C(=O)N3CCSCC3)cc12 [Example 789, [1-benzyl-7-(3,4-dihydro-1H-isoquinolin-2-yl)-2,3-dimethyl-1H-pyrrolo[2,3-c]pyridin-5-yl]-(thiomorpholin-1-yl)-methanone hydrochloride] | 65 nM
20 | Cc1c(C)n(Cc2ccccc2)c2c(N3CCc4ccccc4C3)nc(C(=O)O)cc12 [Example 733, 1-benzyl-7-(3,4-dihydro-1H-isoquinolin-2-yl)-2,3-dimethyl-1H-pyrrolo[2,3-c]pyridin-5-carboxylic acid] | 117 nM
21 | Cc1c(C)n(Cc2ccccc2)c2c(NCc3ccc(F)cc3)nc(C(=O)N3CCCCC3)cc12 [Example 908, [1-benzyl-7-(4-fluorobenzylamino)-2,3-dimethyl-1H-pyrrolo[2,3-c]pyridin-5-yl]-(piperidin-1-yl)-methanone hydrochloride] | 384 nM
22 | COc1ccc(Cn2c(C)c(C)c3ccnc(N(C)Cc4ccc(F)cc4)c32)cc1 [Example 156, 7-[N-(4-fluorobenzyl)-N-methyl]amino-1-(4-methoxybenzyl)-2,3-dimethyl-1H-pyrrolo[2,3-c]pyridine hydrochloride] | 310 nM
23 | CCn1c(C)c(C)c2cc(C(=O)N3CCSCC3)nc(N3CCc4ccccc4C3)c21 [Example 808, [7-(3,4-dihydro-1H-isoquinolin-2-yl)-1-ethyl-2,3-dimethyl-1H-pyrrolo[2,3-c]pyridin-5-yl]-(thiomorpholin-4-yl)-methanone hydrochloride] | 55 nM
24 | Cc1c(C)n(Cc2ccc(C(C)(C)C)cc2)c2c(-c3ccc4ccccc4c3)nccc12 [Example 406, 1-(4-tert-butylbenzyl)-2,3-dimethyl-7-(naphthalen-2-yl)-1H-pyrrolo[2,3-c]pyridine hydrochloride] | 189 nM
25 | CNC(=O)c1cc2c(C)c(C)n(Cc3ccccc3)c2c(N2CCc3ccccc3C2)n1 [Example 772, 1-benzyl-7-(3,4-dihydro-1H-isoquinolin-2-yl)-2,3-dimethyl-N-methyl-1H-pyrrolo[2,3-c]pyridin-5-carboxamide hydrochloride] | 546 nM

— patent publication US7662832B2, “Pyrrolo[2,3-c]pyridine derivatives and processes for the preparation thereof” (priority 2004, dated 2010)
